Measurements taken from US12221449B2, “Pyrrolopyrimidine derivative and use thereof” (WUHAN HUMANWELL INNOVATIVE DRUG RESEARCH AND DEVELOPMENT …, priority 2019, dated 2025).
≈ marks a conversion by molar mass, not a printed value. Like-named read-outs stand apart in the source and are kept apart here. Blank lines part the entries; values can stand above or below the compound they belong to.

How the values were obtained:
Autotaxin (ATX) enzyme = Autotaxin (ATX) enzyme (Homo sapiens (Human), UniProt Q13822); assay: Autotaxin (ATX) enzyme activity inhibition assay (Cayman Autotaxin Inhibitor Screening Assay Kit); format: biochemical; details: OD405, 37° C., 30 min; read-out: IC50, inhibitory activity on ATX activity
Description: Subsequently, the 8 concentrations were diluted with Autotaxin Assay buffer (1×) provided in the kit into 19× compound working solutions (DMSO content was 1.9%). The Autotaxin Assay Reagent (10×) was taken out and diluted by 10 times with Autotaxin Assay Buffer (1×). The Autotaxin Substrate was taken out, dissolved by adding 1.2 mL of Autotaxin Assay Buffer (1×), mixed evenly and stood at room temperature.

[1] = Human liver microsome stability test; format: in vitro ADME; details: human liver microsomes; for Remaining percentage (%) of compound after incubation for 30 min: 37° C., NADPH; for half-life at 1 µM: human
Description: The human liver microsome stability test was performed by incubating the compound and human liver microsomes in vitro. First, the test compound is prepared as a 10 mM stock solution in DMSO solvent, and then the compound was diluted to 0.5 mM with acetonitrile. Human liver microsomes (Corning) were diluted with PBS and prepared as a microsome/buffer solution, which was used to dilute 0.5 mM of the compound into a working solution. […] A deep-well multiwell plate was taken, 30 μL of the working solution and 15 μL of pre-warmed NADPH solution (6 mM) were sequentially added to each well to initiate a reaction, and the reaction was incubated at 37° C. […] After centrifugation, the supernatant was collected, and added with purified water in a ratio of 1:1 to perform LC-MS/MS detection. […] T1/2 was calculated by using Excel.

[2] = target: hERG channels (CHO cell line stably expressing hERG) (Homo sapiens (Human), UniProt Q12809); assay: Inhibitory effect on hERG by full-automatic electrophysiological patch clamp QPatch; format: cell-based; details: for IC50: CHO hERG cells, QPatch; for hERG IC50/ATX IC50: ratio of hERG IC50 (μM) to ATX IC50 (nM)
Sequence of hERG channels (CHO cell line stably expressing hERG) (Q12809 whole entry): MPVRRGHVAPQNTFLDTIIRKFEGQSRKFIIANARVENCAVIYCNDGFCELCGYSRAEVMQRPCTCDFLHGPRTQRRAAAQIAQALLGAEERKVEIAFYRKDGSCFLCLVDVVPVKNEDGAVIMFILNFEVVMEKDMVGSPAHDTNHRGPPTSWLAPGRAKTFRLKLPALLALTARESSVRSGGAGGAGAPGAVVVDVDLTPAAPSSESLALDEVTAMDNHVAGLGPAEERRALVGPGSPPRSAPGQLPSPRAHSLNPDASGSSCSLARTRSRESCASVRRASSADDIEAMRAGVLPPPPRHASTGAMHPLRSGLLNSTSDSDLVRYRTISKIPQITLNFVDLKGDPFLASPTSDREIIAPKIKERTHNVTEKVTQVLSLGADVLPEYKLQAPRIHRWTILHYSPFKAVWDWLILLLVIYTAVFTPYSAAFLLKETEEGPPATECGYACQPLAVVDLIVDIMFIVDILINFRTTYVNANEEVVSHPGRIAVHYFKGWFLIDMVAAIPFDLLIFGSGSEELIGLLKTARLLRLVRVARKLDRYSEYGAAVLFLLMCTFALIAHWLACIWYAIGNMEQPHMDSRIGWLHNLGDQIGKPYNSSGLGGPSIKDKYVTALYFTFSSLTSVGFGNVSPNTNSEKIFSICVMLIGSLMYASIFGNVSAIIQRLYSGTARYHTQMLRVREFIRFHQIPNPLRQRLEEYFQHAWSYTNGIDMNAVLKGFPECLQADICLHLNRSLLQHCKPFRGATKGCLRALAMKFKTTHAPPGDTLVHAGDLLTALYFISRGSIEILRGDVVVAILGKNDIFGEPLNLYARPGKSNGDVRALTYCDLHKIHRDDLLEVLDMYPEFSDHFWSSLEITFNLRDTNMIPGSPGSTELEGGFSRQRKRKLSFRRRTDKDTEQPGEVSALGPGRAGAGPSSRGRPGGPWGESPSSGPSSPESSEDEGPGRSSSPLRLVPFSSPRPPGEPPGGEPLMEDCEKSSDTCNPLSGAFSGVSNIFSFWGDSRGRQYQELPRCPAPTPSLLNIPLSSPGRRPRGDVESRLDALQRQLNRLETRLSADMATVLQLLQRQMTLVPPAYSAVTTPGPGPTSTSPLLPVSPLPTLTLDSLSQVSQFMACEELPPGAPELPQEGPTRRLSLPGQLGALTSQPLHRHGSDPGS
Description: Full-automatic electrophysiological patch clamp QPatch was used to detect the inhibitory effect of compounds on hERG. Cells used in this test were CHO cell line transfected with cDNA of hERG and stably expressing hERG channels (provided by Sophion Bioscience, Denmark), and the cell passage number was P24. The cells were cultured in a medium containing the following components (all purchased from Invitrogen): Ham's F12 medium, inactivated fetal bovine serum (10% (v/v)), hygromycin B (100 μg/ml), and Geneticin (100 μg/ml). CHO hERG cells were grown in a petri dish containing the above-mentioned medium and cultured in an incubator at 37° C. and containing 5% Co2.
The compound to be tested was prepared as a 10 mM stock solution in DMSO solvent, the compound was diluted to 3 mM, 1 mM, 0.3 mM, and 0.1 mM with DMSO, and then the compound was diluted to 30 μM, 10 μM, 3 μM, 1 μM, 0.3 μM and 0.1 μM with the extracellular fluid, so that except that the final concentration of DMSO in the 30 μM compound was 0.3%, the final concentration of DMSO in compound solutions of all other concentrations was 0.1%.
The CHO hERG cells, after being digested and resuspended, were added to the fully automated QPatch system (Sophion, Denmark), and subjected to a test according to the following preset procedure.
After reaching the ruptured whole cell configuration state in the initial stage, the whole cell current was recorded at room temperature (about 25° C.), and the cells were recorded for at least 120 seconds in order to achieve stability. The stable cells were selected for the test. During the whole test, the cell patch clamp was at a voltage of −80 mV, the cell patch clamp voltage was depolarized to +20 mV to activate the hERG potassium channels, and after 2.5 seconds, the cell patch clamp voltage was at −50 mV to eliminate inactivation and generate outward tail current. The peak tail current was used as the value of the hERG current. The voltage mode described above was applied to the cells for electrophysiological tests every 15 seconds. An intracellular liquid containing 0.1% dimethyl sulfoxide (solvent) was added to the cells to establish a baseline, and then the current was allowed to stabilize for 3 min. After the compound solution was added, the cells were kept in the test environment until the effect of the compound reached a steady state or until reaching 4 min. In the test experiments with different concentration gradients of the compound, the compound was added to the clamped cells from low to high concentration. After the compound test was finished, the cells were washed with the extracellular fluid until the current returned to a stable state.
The test data were analyzed by Qpatch analysis software provided by Sophion, Excel, and Graphpad Prism.

[3] = Thermodynamic solubility test; format: physicochemical; details: for solubility: thermodynamic from solid
Description: The compound was accurately weighed, and the prepared phosphate buffer (pH 7.4), FeSSIF solution (pH 5.8) and FaSSGF solution (pH 1.6) were added to prepare a solution with a concentration of 4 mg/mL, which was shaken at 1,000 rpm for 1 hour, and then incubated overnight at room temperature. After the incubation, the solution was centrifuged at 12,000 rpm for 10 min to remove undissolved particles, and the supernatant was transferred to a new centrifuge tube. The supernatant was diluted appropriately, then added with an acetonitrile solution containing the internal standard, and quantified using a standard curve prepared with the same matrix.

[4] = Pharmacokinetic test in mice; format: in vivo, male ICR mice
Description: (§1) For the in vivo pharmacokinetic test of rats, 6 male SD rats were used, 180-240 g, fasted overnight. […] The blood samples were centrifuged at 8,000 rpm at 4° C. for 6 min, and plasma was collected and stored at −20° C. The plasma at each time point was taken and added with an acetonitrile solution containing internal standard in 3-5 times the amount, vortexed and mixed for 1 min, and centrifuged at 13,000 rpm at 4° C. for 10 min. The supernatant was collected, added and mixed with water in 3 times the amount. An appropriate amount of the mixture was taken for LC-MS/MS analysis. The main pharmacokinetic parameters were analyzed using WinNonlin 7.0 software with non-compartmental model.
For the in vivo pharmacokinetic test of mice, 18 male ICR mice were used, 20-25 g, fasted overnight. Among them, 9 mice were orally administered by gavage (10 mg/kg), bloods of 3 mice were collected at each blood collection time point, and the bloods of the 9 mice were alternately collected. The other 9 mice were intravenously administered with the compound (1 mg/kg), bloods of 3 mice were collected at each blood collection time point, and the bloods of the 9 mice were alternately collected. The rest operations were the same as that of pharmacokinetic test in rats.

[5] = Pharmacokinetic test in rats; format: in vivo, male SD rats; details: for AUC(0-t) / clearance / half-life / Vd / Cmax / Tmax: male, SD, rat, plasma; for Vd: read-out: Vz
Description: as §1

[6] = target: ATX enzyme activity in human plasma (Homo sapiens (Human), UniProt Q13822); assay: Inhibition test of ATX enzyme activity in human plasma (LPA18:2 formation); format: biochemical; details: 37° C., 3 h
Description: Whole blood was collected from healthy volunteers and anticoagulated with heparin. The blood collection tubes were centrifuged at 3,000 rpm for 10 min, and the plasma was taken and stored at −80° C. for use.
The compound was serially diluted with DMSO according to the conventional concentration requirements, and then 3 μL of the diluted compound was added to a 96-well plate, and 147 μL of PBS was added to each well containing 3 μL of the compound. After mixing homogenously, 50 μL of the mixture was removed and added to a new 96-well plate. The human plasma was taken out from the −80° C. refrigerator and thawed through rapid shaking in a 37° C. water bath. 50 μL of the human plasma was taken and added to the 96-well plate containing 50 μL of the diluted compound (the final system was 1% DMSO). The group without the compound was set as the positive control group. The 96-well plate was shaken and mixed uniformly, and incubated at 37° C. for 3 h. A blank group was also provided, and the plasma of the blank group was stored at −80° C. The blank group is provided to determine the baseline concentration of endogenous LPA.
After the incubation was finished, the blank group was thawed on ice and transferred to an incubation plate. Excess acetonitrile containing the internal standard LPA17:0 was added to the incubation plate to precipitate the plasma protein. After vortex centrifugation, the supernatant was taken and diluted, and a peak area of LPA18:2 and a peak area of internal standard LPA17:0 were detected using LC-MSMS mass spectrometry.
According to the inhibition rates of different concentrations of the compound, the IC50 value of the compound, which is related to inhibition of ATX enzyme activity in human plasma, was calculated.

[7] = system: idiopathic pulmonary fibrosis model (IPF model) induced by bleomycin; assay: IPF model induced by bleomycin in rats; format: in vivo, male BN rats; details: 30 mg/kg orally twice a day; for weight reduction of the animals: 21 days, compared with control compound group, FIG. 1
Description: Using male BN rats, 180-240 g, idiopathic pulmonary fibrosis model (IPF model) was induced with a dose of 5 U/kg bleomycin. […] On the second day after the model was established, the animals were orally administered by gavage twice a day, where the administration group was administered with a dose of 30 mg/kg each time, and the solvent control group was administered with a blank solvent, and the administration continued for 21 days. During the administration, the body weight was weighed every three days. On day 21 of administration, alveolar lavage was conducted 2 h after the first administration, the inflammatory cells in the lavage fluid were counted, and the associated biomarkers in the supernatant of the lavage fluid were detected. After lavage, the left lungs of the rats were fixed, and stained with Masson's trichrome staining to score the fibrosis pathology. The remaining lung lobes were cryopreserved. The supernatant of the alveolar lavage fluid and the freshly frozen lung tissue of the three compound groups were taken and detected for a content of TGF-β1 protein and an amount of total protein by using ELISA, and the amount of TGF-β1 per milligram of total protein was calculated.

[8] = cited from earlier work; for probability of discontinuation due to serious adverse events: patients taking the drug, Maher et al. 2019
[9] = FaSSGF solution, fassgf or other biorelevant, FaSSGF, pH 1.6, thermodynamic, read-out: Dissolubility FaSSGF (pH 1.6)
[10] = FeSSIF solution, FeSSIF, pH 5.8, thermodynamic, read-out: Dissolubility FeSSIF (pH 5.8)
[11] = phosphate buffered saline, aqueous buffer, PBS, pH 7.4, thermodynamic, read-out: Dissolubility PBS (pH 7.4)
[12] = male, ICR, mouse, plasma, intravenous administration 1 mg/kg
[13] = male, ICR, mouse, plasma, oral administration by gavage 10 mg/kg
[14] = intravenous administration 1 mg/kg
[15] = oral administration by gavage 10 mg/kg
[16] = day 21, compared with solvent control group, FIG. 2

IC50 (Autotaxin (ATX) enzyme): 4.24 nM
Remaining percentage (%) of compound after incubation for 30 min [1]: 87.4%
Compound: CC(OCCc1c[nH]nn1)C(=O)N1Cc2cnc(NC3Cc4ccccc4C3)nc2C1 (racemic) [Compound I-1, 2-(2-(1H-1,2,3-triazol-4-yl)ethoxy)-1-(2-((2,3-dihydro-1H-inden-2-yl)amino)-5,7-dihydro-6H-pyrrolo[3,4-d]pyrimidin-6-yl)propan-1-one]
IC50 [2]: 22300 nM
hERG IC50/ATX IC50 [2]: 22.3/4.24 = 5.26

Compound: CC(Cc1cnn[nH]1)OCC(=O)N1Cc2cnc(NC3Cc4ccccc4C3)nc2C1 (racemic) [Compound I-2, 2-((1-(1H-1,2,3-triazol-5-yl)propan-2-yl)oxy)-1-(2-((2,3-dihydro-1H-inden-2-yl)amino)-5,7-dihydro-6H-pyrrolo[3,4-d]pyrimidin-6-yl)ethan-1-one]
IC50 (Autotaxin (ATX) enzyme): 1.35 nM

IC50 (Autotaxin (ATX) enzyme): 2.67 nM
Remaining percentage (%) of compound after incubation for 30 min [1]: 86.0%
half-life at 1 µM [1]: 123 min
solubility [3, 9]: 88.5 µg/mL (≈ 211 µM)
solubility [3, 10]: 20.4 µg/mL (≈ 48.6 µM)
solubility [3, 11]: 20.4 µg/mL (≈ 48.6 µM)
AUC(0-t) [4, 12]: 495 ng·h/mL
clearance [4, 12]: 34.8 mL/min/kg
half-life [4, 12]: 22.2 min
Vd ([4]; male, ICR, mouse, plasma, intravenous administration 1 mg/kg, read-out: Vz): 1.05 L/kg
AUC(0-t) [4, 13]: 6120 ng·h/mL
Cmax [4, 13]: 6940 ng/mL
Tmax [4, 13]: 25.2 min
half-life [4, 13]: 40.2 min
AUC(0-t) [5, 14]: 828 ng·h/mL
clearance [5, 14]: 21.3 mL/min/kg
half-life [5, 14]: 25.8 min
Vd [5, 14]: 0.76 L/kg
AUC(0-t) [5, 15]: 6330 ng·h/mL
Cmax [5, 15]: 3390 ng/mL
Tmax [5, 15]: 30 min
half-life [5, 15]: 151 min
IC50 [6]: 12 nM
Compound: C[C@@H](OCCc1c[nH]nn1)C(=O)N1Cc2cnc(NC3Cc4ccccc4C3)nc2C1 [Compound I-1R, (R)-2-(2-(1H-1,2,3-triazol-4-yl)ethoxy)-1-(2-((2,3-dihydro-1H-inden-2-yl)amino)-5,7-dihydro-6H-pyrrolo[3,4-d]pyrimidin-6-yl)propan-1-one]
IC50 [2]: 22000 nM
hERG IC50/ATX IC50 [2]: 22.0/2.67 = 8.24

IC50 (Autotaxin (ATX) enzyme): 28.6 nM
Compound: C[C@H](OCCc1c[nH]nn1)C(=O)N1Cc2cnc(NC3Cc4ccccc4C3)nc2C1 [Compound I-1S, (S)-2-(2-(1H-1,2,3-triazol-4-yl)ethoxy)-1-(2-((2,3-dihydro-1H-inden-2-yl)amino)-5,7-dihydro-6H-pyrrolo[3,4-d]pyrimidin-6-yl)propan-1-one]

Compound: C[C@H](Cc1cnn[nH]1)OCC(=O)N1Cc2cnc(NC3Cc4ccccc4C3)nc2C1 [Compound I-2R, (R)-2-((1-(1H-1,2,3-triazol-5-yl)propan-2-yl)oxy)-1-(2-((2,3-dihydro-1H-inden-2-yl)amino)-5,7-dihydro-6H-pyrrolo[3,4-d]pyrimidin-6-yl)ethan-1-one]
Remaining percentage (%) of compound after incubation for 30 min [1]: 63.7%
half-life at 1 µM [1]: 53.6 min
IC50 [2]: 9480 nM
hERG IC50/ATX IC50 [2]: 9.48/1.59 = 6.0
solubility [3, 9]: 1040 µg/mL (≈ 2470 µM)
solubility [3, 10]: 260 µg/mL (≈ 620 µM)
solubility [3, 11]: 107 µg/mL (≈ 255 µM)
clearance rate (CL) relative to that of the control compound ([5]; fraction of control compound's CL): about ¼
oral AUC0-t relative to that of the control compound ([5]; oral): 4.2 times
oral Cmax relative to that of the control compound ([5]; oral): 6.1 times
IC50 [6]: 4.73 nM
weight reduction of the animals [7]: significantly less than that of the control compound group
content of TGF-β1 in the freshly frozen lung tissue [7, 16]: significantly lower than those of the solvent control group
content of TGF-β1 in the supernatant of the alveolar lavage fluid [7, 16]: significantly lower than those of the solvent control group

IC50 (Autotaxin (ATX) enzyme): 1.4 nM
Remaining percentage (%) of compound after incubation for 30 min [1]: 42.9%
half-life at 1 µM [1]: 26.6 min
solubility [3, 9]: 1240 µg/mL (≈ 2960 µM)
solubility [3, 11]: 73.6 µg/mL (≈ 175 µM)
AUC(0-t) [5, 14]: 661 ng·h/mL
clearance [5, 14]: 25.2 mL/min/kg
half-life [5, 14]: 20.4 min
Vd [5, 14]: 0.74 L/kg
AUC(0-t) [5, 15]: 3690 ng·h/mL
Cmax [5, 15]: 2420 ng/mL
Tmax [5, 15]: 25.2 min
half-life [5, 15]: 115 min
IC50 [6]: 2.1 nM
Compound: C[C@@H](Cc1cnn[nH]1)OCC(=O)N1Cc2cnc(NC3Cc4ccccc4C3)nc2C1 [Compound I-2S, (S)-2-((1-(1H-1,2,3-triazol-5-yl)propan-2-yl)oxy)-1-(2-((2,3-dihydro-1H-inden-2-yl)amino)-5,7-dihydro-6H-pyrrolo[3,4-d]pyrimidin-6-yl)ethan-1-one]
IC50 [2]: 8780 nM
hERG IC50/ATX IC50 [2]: 8.87/1.40 = 6.3
weight reduction of the animals [7]: significantly less than that of the control compound group

T1/2 [1]: 24.1 min
Remaining percentage (%) of compound after incubation for 30 min [1]: 41.2%
Dissolubility FaSSGF (pH 1.6) ([3]; FaSSGF, pH 1.6, thermodynamic): 66.5 μg/mL
Dissolubility FeSSIF (pH 5.8) ([3]; FeSSIF, pH 5.8, thermodynamic): 18.3 μg/mL
Dissolubility PBS (pH 7.4) ([3]; PBS, pH 7.4, thermodynamic): 6.3 μg/mL
thermodynamic solubility (in words) ([3]; simulated gastric juice, simulated intestinal juice, neutral conditions): relatively poor
T1/2 [4, 14]: 20.4 min
T1/2 [4, 15]: 49.8 min
T1/2 [5, 14]: 27 min
T1/2 [5, 15]: 78.6 min
Compound: O=C(COCCc1cnn[nH]1)N1Cc2cnc(NC3Cc4ccccc4C3)nc2C1 [Control compound, reference compound]

Compound: COC(=O)c1ccc2c(c1)NC(=O)/C2=C(\Nc1ccc(N(C)C(=O)CN2CCN(C)CC2)cc1)c1ccccc1 [Nintedanib]
probability of discontinuation due to serious adverse events [8]: 26.3%
incidence of gastrointestinal reactions ([8]; patients): ≤ 50%

Compound: Cc1ccc(=O)n(-c2ccccc2)c1 [Pirfenidone]
probability of discontinuation due to serious adverse events [8]: 20.9%
